Source: publication PMC5397516, “Insights into the Mode of Action of the Sactibiotic Thuricin CD” (Frontiers in Microbiology, 2017)
Like-named read-outs stand apart in the source and are kept apart here. Where no end group is shown, it is not given here.

Assays:
B. firmus DPC6349 cells = test: Time course flow cytometry of membrane potential (DiOC2(3)), cell size (FSC) and granularity (SSC); format: cell-based, Bacillus firmus
Excerpt: Used alone or in combination with fluorescent probes, FC enables the assessment of various structural and functional cell properties, often leading to a deeper characterization of the physiological heterogeneity of a microbial population ([Díaz et al., 2010]). Membrane potential in microbial cells can be detected by FC following staining with fluorescent lipophilic cell-permeant probes such as DiOC2(3). […] Conversely, fluorescence-independent monitoring by FC of the forward (FSC) and side-angle (SSC) light scattering properties of a bacterial population provides useful information about morphological parameters such as cell size and internal granularity/complexity, respectively ([Díaz et al., 2010]; [Shapiro, 2015]). The impact of the thuricin CD peptides, Trnα and Trnβ, on the membrane potential and morphology of sensitive B. firmus DPC6349 cells was therefore assessed by FC as follows. Cells from a 100 μl aliquot of an overnight culture were recovered by centrifugation (8260 g for 10 min), diluted 10-fold in 1 ml of LB broth and activated by incubation at 37°C for 30 min. At this point, the cells were diluted a further 25-fold and stained for 30 min with a solution of 6.3 μM DiOC2 (3) (Thermo Fisher Scientific), prepared in PBS and containing 0.21% glucose to energize the cells and thereby generate a large membrane potential. Aliquots of 1.4 ml of stained samples were acquired at medium flow rate (35 μl/sec) using a BD Accuri C6 flow cytometer (Becton Dickinson, Belgium) and a threshold of 10000 on FSC to minimize background. Acquisition and analysis of DiOC2(3) fluorescence (FL3, > 670 nm long pass), cell size (FSC) and cell complexity/granularity (SSC) were carried out using the BD Accuri C6 software v. 1.0.2 (Becton Dickinson, Belgium). The microbial population was identified based on its light scattering properties on FSC versus SSC bi-plots and a gating strategy was used to discriminate it from background particles and cell debris. The time course changes in membrane potential and morphology of DPC6349 cells following challenge with an antimicrobial were assessed using the “Run Unlimited” function of the C6 flow cytometer. Unchallenged DiOC2(3)-stained cells were initially acquired for 2 min to establish baseline levels of membrane potential and morphological parameters. Subsequently, a small aliquot of a 10–15x stock solution of an antimicrobial in PBS was added and its effect on the physiology of the sensitive target monitored over 15–25 min. The impact on the host’s membrane potential of individual, combined and sequentially added thuricin CD peptides, Trnα or Trnβ, was compared to those exerted by the proton motive force (PMF)-depleting agents Nisin A ([Bruno et al., 1992]), lacticin 3147 ([McAuliffe et al., 1998]), and valinomycin ([Shapiro, 2004]). Stock solutions of valinomycin were prepared in DMSO, whereas diluted working solutions were made using PBS. To generate high external potassium conditions and trigger the membrane depolarizing activity of valinomycin ([Shapiro, 2004]; [Cronin, 2015]), 150mM KCl was added to the PBS used to prepare the DiOC2(3) staining solution. Assays were conducted in duplicate.

B. firmus DPC6349 = test: Minimum inhibitory concentration (MIC) assay, two-fold serial dilutions in LB broth; format: cell-based, Bacillus firmus; details: for MIC, fold higher than thuricin CD: B. firmus DPC6349, in molar values
Method: In this study, B. firmus DPC6349 was utilized as a surrogate thuricin CD-sensitive host, in lieu of thuricin CD-sensitive C. difficile strains. The aerobic growth conditions of DPC6349, in conjunction with its class I status, facilitated the FC experiments in this study. MIC assays were conducted as previously described with minor modifications ([Mathur et al., 2013]). Briefly, cells of the bacteriocin-sensitive strain B. firmus DPC6349 were grown overnight for 16 h in LB broth at 37°C with vigorous agitation (150 rpm). The following day, the cells were subcultured until they reached mid-logarithmic phase (an OD600 of approximately 0.5). At this point, cells were diluted such that the final inoculum for MIC assays was approximately 5 × 10^5 cfu/ml. Thuricin CD peptides, Nisin A and lacticin 3147 peptides were resuspended in LB broth. The potassium ionophore, valinomycin, was initially reconstituted in DMSO (Molecular Probes) prior to diluting in PBS and subsequently diluting in LB broth. All antimicrobials were finally diluted in LB broth to give the desired starting concentrations and two-fold serial dilutions were performed in 96-well microtitre plates, for MIC assays. MIC readings were taken at 18 h and the MIC was defined as the lowest concentration of the antimicrobial at which there was no visible growth of the target strain. Assays were conducted in triplicate.

[1] = B. firmus DPC6349, approx. 5 × 10^5 cfu/ml, LB broth, read at 18 h, no visible growth, triplicate

In the case of O=C(N[C@H](CO)[C@H](O)c1ccc([N+](=O)[O-])cc1)C(Cl)Cl [Chloramphenicol, chloramphenicol], the “Effect on membrane potential and cell size” value (B. firmus DPC6349 cells; (approximately 3x MIC), DiOC2(3)) is reported as “no membrane depolarization and reduction in cell size”, the MIC (B. firmus DPC6349; [1]) is reported as 2.423 µg/mL and the “MIC, fold higher than thuricin CD” value (B. firmus DPC6349) is reported as 60 fold. It also gave an MIC (B. firmus DPC6349; Cytobacillus firmus, B. firmus DPC6349, approx. 5 × 10^5 cfu/ml, LB broth, read at 18 h, no visible growth, triplicate, read-out: MIC) of 7.5 µM.

For CC(C)[C@@H]1NC(=O)[C@H](C)OC(=O)[C@@H](C(C)C)NC(=O)[C@@H](C(C)C)OC(=O)[C@H](C(C)C)NC(=O)[C@H](C)OC(=O)[C@@H](C(C)C)NC(=O)[C@@H](C(C)C)OC(=O)[C@H](C(C)C)NC(=O)[C@H](C)OC(=O)[C@@H](C(C)C)NC(=O)[C@@H](C(C)C)OC1=O [Valinomycin, valinomycin], the “Effect on cell size and granularity” value (B. firmus DPC6349 cells; 156 nM (0.25x MIC), 150 mM extracellular KCl) was “no reduction in cell size or granularity”, the “Effect on membrane potential” value (B. firmus DPC6349 cells; 156 nM (0.25x MIC), 150 mM extracellular KCl, DiOC2(3)) was “immediate and sharp membrane depolarization” and the MIC (B. firmus DPC6349; [1]) was 0.69 µg/mL. The “MIC, fold higher than thuricin CD” value (B. firmus DPC6349) was “five-fold higher” and the MIC (B. firmus DPC6349; Cytobacillus firmus, DPC6349, 18 h) was 0.625 µM.

“Nisin A (ITSISLCTPGCKTGALMGCNMKTATCHCSIHVSK; also: lantibiotic post-translational modifications (thioether rings), not given here; UniProt P13068 24-57, looked up) [pore-forming single-component lantibiotic bacteriocin]” was tested, and the “Effect on cell size (FSC) and granularity (SSC)” value (B. firmus DPC6349 cells; 3 μM (approximately 10x MIC)) was “decreases in cell size (FSC) and granularity/complexity (SSC)”, the “Effect on membrane potential” value (B. firmus DPC6349 cells; 3 μM (approximately 10x MIC), DiOC2(3) red fluorescence) was “very fast membrane depolarization” and the “Time to membrane depolarization after adding the peptide” value (B. firmus DPC6349 cells; 3 μM (approximately 10x MIC), DiOC2(3)-stained energized cells, duplicate) was no more than 4 min. For the same compound, the MIC (B. firmus DPC6349; [1]) was 1.046 µg/mL, the MIC (B. firmus DPC6349; B. firmus DPC6349, approx. 5 × 10^5 cfu/ml, LB broth, read at 18 h, no visible growth, triplicate, read-out: MIC) was 0.312 µM and the “MIC, fold higher than thuricin CD” value (B. firmus DPC6349) was “approximately 2.5 fold”.
